Test results published in PubChem BioAssay AID1259407 (Chemical Carcinogenesis Research Information System (CCRIS), 2018).
Active and inactive are the calls of the source. No rule for the calls is given here.

System: CCRIS mutagenicity, Ames/micronucleus/aberration tests
Assay: CCRIS mutagenicity studies
[1] = Test System: AMES SALMONELLA TYPHIMURIUM, Strain/Indicator: TA98, Metabolic Activation: NONE, Method: STANDARD PLATE
[2] = Test System: AMES SALMONELLA TYPHIMURIUM, Strain/Indicator: TA98, Metabolic Activation: RAT, LIVER, S-9, AROCLOR 1254, Method: STANDARD PLATE
[3] = Test System: AMES SALMONELLA TYPHIMURIUM, Strain/Indicator: TA100, Metabolic Activation: NONE, Method: STANDARD PLATE
[4] = Test System: AMES SALMONELLA TYPHIMURIUM, Strain/Indicator: TA100, Metabolic Activation: RAT, LIVER, S-9, AROCLOR 1254, Method: STANDARD PLATE
[5] = Test System: AMES SALMONELLA TYPHIMURIUM, Strain/Indicator: TA98, Metabolic Activation: HAMSTER, LIVER, S-9, AROCLOR 1254, Method: STANDARD PLATE
[6] = Test System: AMES SALMONELLA TYPHIMURIUM, Strain/Indicator: TA100, Metabolic Activation: HAMSTER, LIVER, S-9, AROCLOR 1254, Method: STANDARD PLATE
[7] = Test System: AMES SALMONELLA TYPHIMURIUM, Strain/Indicator: TA1535, Metabolic Activation: HAMSTER, LIVER, S-9, AROCLOR 1254, Method: STANDARD PLATE
[8] = Test System: AMES SALMONELLA TYPHIMURIUM, Strain/Indicator: TA1535, Metabolic Activation: NONE, Method: STANDARD PLATE
[9] = Test System: AMES SALMONELLA TYPHIMURIUM, Strain/Indicator: TA1535, Metabolic Activation: RAT, LIVER, S-9, AROCLOR 1254, Method: STANDARD PLATE
[10] = Test System: AMES SALMONELLA TYPHIMURIUM, Strain/Indicator: TA1537, Metabolic Activation: HAMSTER, LIVER, S-9, AROCLOR 1254, Method: STANDARD PLATE
[11] = Test System: AMES SALMONELLA TYPHIMURIUM, Strain/Indicator: TA1537, Metabolic Activation: NONE, Method: STANDARD PLATE
[12] = Test System: AMES SALMONELLA TYPHIMURIUM, Strain/Indicator: TA1537, Metabolic Activation: RAT, LIVER, S-9, AROCLOR 1254, Method: STANDARD PLATE
[13] = Test System: AMES SALMONELLA TYPHIMURIUM, Strain/Indicator: TA1538, Metabolic Activation: HAMSTER, LIVER, S-9, AROCLOR 1254, Method: STANDARD PLATE
[14] = Test System: AMES SALMONELLA TYPHIMURIUM, Strain/Indicator: TA1538, Metabolic Activation: NONE, Method: STANDARD PLATE
[15] = Test System: AMES SALMONELLA TYPHIMURIUM, Strain/Indicator: TA1538, Metabolic Activation: RAT, LIVER, S-9, AROCLOR 1254, Method: STANDARD PLATE
[16] = Test System: MOUSE LYMPHOMA, Strain/Indicator: L5178Y (TK+/TK-), Metabolic Activation: NONE, Method: SUSPENSION/PLATE
[17] = Test System: MOUSE LYMPHOMA, Strain/Indicator: L5178Y (TK+/TK-), Metabolic Activation: RAT, LIVER, S-9, AROCLOR 1254, Method: SUSPENSION/PLATE

Measured: mutagenic call

Cc1cc(Cl)ccc1OC(C)C(=O)O (centres undefined)
inactive: Test System: AMES SALMONELLA TYPHIMURIUM, Strain/Indicator: TA97, Metabolic Activation: NONE, Method: STANDARD PLATE inactive; negative | Test System: AMES SALMONELLA TYPHIMURIUM, Strain/Indicator: TA97, Metabolic Activation: RAT, LIVER, S-9, AROCLOR 1254, Method: STANDARD PLATE inactive; negative | [1] inactive; negative | [2] inactive; negative | [3] inactive; negative | [4] inactive; negative | Test System: AMES SALMONELLA TYPHIMURIUM, Strain/Indicator: TA102, Metabolic Activation: NONE, Method: STANDARD PLATE inactive; negative | Test System: AMES SALMONELLA TYPHIMURIUM, Strain/Indicator: TA102, Metabolic Activation: RAT, LIVER, S-9, AROCLOR 1254, Method: STANDARD PLATE inactive; negative

C=CCc1ccc(O)cc1
inactive: [5] inactive; negative | [1] inactive; negative | [2] inactive; negative | [6] inactive; negative | [3] inactive; negative | [4] inactive; negative | [7] inactive; negative | [8] inactive; negative | [9] inactive; negative | [10] inactive; negative | [11] inactive; negative | [12] inactive; negative | [13] inactive; negative | [14] inactive; negative | [15] inactive; negative | [16] inactive; negative. reevaluation of results: negative | [17] inactive; negative. reevaluation of results: negative

CCCCC/C=C\C/C=C\CCCCCCCC(=O)O
inactive: Test System: AMES SALMONELLA TYPHIMURIUM, Strain/Indicator: TA98, Metabolic Activation: HAMSTER, LIVER, S-9, AROCLOR 1254 (10%), Method: PREINCUBATION inactive; negative | [5] inactive; negative | Test System: AMES SALMONELLA TYPHIMURIUM, Strain/Indicator: TA98, Metabolic Activation: NONE, Method: PREINCUBATION inactive; negative | [1] inactive; negative | Test System: AMES SALMONELLA TYPHIMURIUM, Strain/Indicator: TA98, Metabolic Activation: RAT, LIVER, S-9, AROCLOR 1254 (10%), Method: PREINCUBATION inactive; negative | [2] inactive; negative | Test System: AMES SALMONELLA TYPHIMURIUM, Strain/Indicator: TA100, Metabolic Activation: HAMSTER, LIVER, S-9, AROCLOR 1254 (10%), Method: PREINCUBATION inactive; negative | [6] inactive; negative | Test System: AMES SALMONELLA TYPHIMURIUM, Strain/Indicator: TA100, Metabolic Activation: NONE, Method: PREINCUBATION inactive; negative | [3] inactive; negative | Test System: AMES SALMONELLA TYPHIMURIUM, Strain/Indicator: TA100, Metabolic Activation: RAT, LIVER, S-9, AROCLOR 1254 (10%), Method: PREINCUBATION inactive; negative | [4] inactive; negative | Test System: AMES SALMONELLA TYPHIMURIUM, Strain/Indicator: TA1535, Metabolic Activation: HAMSTER, LIVER, S-9, AROCLOR 1254 (10%), Method: PREINCUBATION inactive; negative | [7] inactive; negative | Test System: AMES SALMONELLA TYPHIMURIUM, Strain/Indicator: TA1535, Metabolic Activation: NONE, Method: PREINCUBATION inactive; negative | [8] inactive; negative | Test System: AMES SALMONELLA TYPHIMURIUM, Strain/Indicator: TA1535, Metabolic Activation: RAT, LIVER, S-9, AROCLOR 1254 (10%), Method: PREINCUBATION inactive; negative | [9] inactive; negative | Test System: AMES SALMONELLA TYPHIMURIUM, Strain/Indicator: TA1537, Metabolic Activation: HAMSTER, LIVER, S-9, AROCLOR 1254 (10%), Method: PREINCUBATION inactive; negative | [10] inactive; negative | Test System: AMES SALMONELLA TYPHIMURIUM, Strain/Indicator: TA1537, Metabolic Activation: NONE, Method: PREINCUBATION inactive; negative | [11] inactive; negative | Test System: AMES SALMONELLA TYPHIMURIUM, Strain/Indicator: TA1537, Metabolic Activation: RAT, LIVER, S-9, AROCLOR 1254 (10%), Method: PREINCUBATION inactive; negative | [12] inactive; negative | [13] inactive; negative | [14] inactive; negative | [15] inactive; negative | [16] inactive; negative. reevaluation of results: negative | [17] inactive; negative. reevaluation of results: negative
